Test results taken from ChEMBL document CHEMBL1157335, “Aromatic constituents of Uvaria grandiflora” (J Nat Prod, 2006).
≈ marks a conversion by molar mass, not a printed value.

Test system: Leishmania donovani
Assay: Antileishmanial activity against Leishmania donovani promastigotes after 48 hrs by alamar blue assay
Format: functional, organism-based

Work on `C[C@@H]1[C@H](O)[C@@H](C)/C=C/C=C/C=C/C=C/C=C/C=C/C=C/[C@H](O[C@@H]2O[C@H](C)[C@@H](O)[C@H](N)[C@@H]2O)C[C@@H]2O[C@](O)(C[C@@H](O)C[C@@H](O)[C@H](O)CC[C@@H](O)C[C@@H](O)CC(=O)O[C@H]1C)C[C@H](O)[C@H]2C(=O)O` [AMPHOTERICIN B] yielded an IC90 of 0.34 µg/mL (≈ 0.368 µM).

`CC(=O)O[C@H]1C(=O)C=COC=C1COC(=O)c1ccccc1` [GRANDIUVARONE A] showed an IC50 of 0.7 µg/mL (≈ 2.32 µM) and an IC90 of 1.5 µg/mL (≈ 4.96 µM).

For `N=C(N)c1ccc(OCCCCCOc2ccc(C(=N)N)cc2)cc1` [PENTAMIDINE], the IC90 was 6.6 µg/mL (≈ 19.4 µM).
